Patent publication US20090252786A1, “Use of a Biologically Active Blood Serum for the Treatment of a Disorder Characterized in a Reduced Function of a GABA Receptor” (priority 2008, published 2009)
Values joined by “and” are separate entries in the source; they are usually repeats but may differ in a detail not shown here. Equal entries are not always repeated.

Legend:
[1] = system: pyramidal cell layer of CA1, hippocampus slices; test: hippocampus slice, provocation with bicuculline; parameters: species or system rat; conditions: bicuculline 50 μM alone, mean of 4 slices, one mean per series
Excerpt: (§1) Hippocampus slices were obtained from 11 adult male Sprague-Dawlay rats (Charles River Wiga, Sulzbach, Germany). Rats were kept under a reversed day-night cycle for 2 weeks prior start of the experiments, to allow recording of in-vitro activity from slices during the active phase of their circadian rhythm (Dimpfel et al., 1994, Dimpfel et al., 1995). Animals were exsanguinated under ether anaesthesia, the brain was removed in total and the hippocampal formation was isolated under microstereoscopic sight. The midsection of the hippocampus was fixed to the table of a vibrating microtome (Rhema Labortechnik, Hofheim, Germany) using a cyanoacrylate adhesive, submerged in chilled bicarbonate-buffered saline (artificial cerebro spinal fluid (ACSF) NaCl: 124 mM; KCl: 5 mM; CaCl2: 2 mM; MgSO4: 2 mM; NaHCO3: 26 mM; and glucose: 10 mM), and cut into slices of 400 μm thickness. All slices were preincubated for at least 1 h in carbogen ([…])-saturated ACSF (pH 7.4) in a prechamber before use (see also Dimpfel et al., 1991).
During the experiment the slices were held and treated in a special Superfusion chamber (List Electronics, Darmstadt, Germany) at 35° C. according to Haas et al., 1979 (see also: Schiff and Somjen, 1985). Four slices were used from one rat per day under one of the test conditions (control or various concentrations of the S1 compound). […]

[2] = system: pyramidal cell layer of CA1, hippocampus slices; test: hippocampus slice, provocation with pentylenetetrazol; parameters: species or system rat; conditions: PTZ 50 μM alone
Excerpt: as §1
During the experiment the slices were held and treated in a special Superfusion chamber (List Electronics, Darmstadt, Germany) at 35° C. according to Haas et al., 1979 (see also: Schiff and Somjen, 1985). Four slices were used from one rat per day under one of the test conditions (control or various concentrations of the S1 compound). The preparation was superfused with artificial cerebrospinal fluid (ACSF) at 180-230 ml/h. Electrical stimulation (200 μA constant current pulses of 200 μs pulse width) of the Schaffer Collaterals within the […] area and recording of extracellular field potentials from the pyramidal cell layer of CA1 (Dimpfel et al., 1991) as shown in FIG. 4 and FIG. 5 was performed according to conventional electrophysiological methods using the “Labteam” Computer system and “NeuroTool” software package (Medisyst GmbH, Linden, Germany). Measurements were performed at 10 min intervals to avoid potentiation mechanisms. Four stimulations—each 20 seconds apart—were averaged for each time point. […]

| Structure (SMILES) | population spike amplitude in % of ACSF value, Bicuculline 50 μM, mean (X) [1] | population spike amplitude in % of ACSF value, PTZ 50 μM, mean (X) ([2]; mean of 4 slices) | population spike amplitude, PTZ 50 μM, mean (X) ([2]; mean of 4 slices) | population spike amplitude in % of ACSF value, PTZ 50 μM ([2]; single slices) |
| --- | --- | --- | --- | --- |
| CN1CCc2cc3c(cc2[C@H]1[C@@H]1OC(=O)c2c1ccc1c2OCO1)OCO3 [Bicuculline] | 256.6% and 248.7% and 237.6% and 249.6% |  |  |  |
| C1CCc2nnnn2CC1 [PTZ, 6,7,8,9-tetrahydro-5h-tetrazolo(1,5-a)azepine] |  | 243.9% | −2854.9 μV | 254.2% and 244.7% and 232.8% and 243.7% |
